Test results reported in patent US20170088609A1, “ANTICANCER COMBINATION THERAPY” (priority 2015, published 2017).

Experiments:
mutant forms of EGFR = assay: Enzymatic inhibitory activity towards EGFR; format: biochemical
Source text: (§1) Compound 1 is a small molecule epidermal growth factor receptor (EGFR) mutant-specific inhibitor. […] Anti-tumor efficacy was independent of schedule (once daily versus twice daily administration) and was tolerated by the mice at clinically relevant exposure. Compound 1 is a novel, 3rd generation EGFR mutant-specific TKI, which is currently being investigated in first and second line setting for treatment of patients with EGFR-mutated NSCLC.

EGFR mutant cell lines = assay: Cellular assays comparing EGFR mutant with EGFR wild type cell lines (proliferation); format: cell-based; settings: EGFR mutant vs EGFR wild type cell lines
Source text: as §1

[1] = tested on: HCC827 (EGFRDelE746-A750)
Source text: as §1

H1975 (EGFRL858R/T790M) = assay: In vivo xenograft study, NSCLC model H1975; settings: H1975 xenograft in mice; once daily or twice daily
Source text: as §1

[2] = tested on: PC-9/GR/WR tumor xenografts; assay: PC-9/GR/WR xenograft studies (tumor volume); format: in vivo; settings: SCID mice; HM61713 200 and 400 mg/kg oral gavage 5 days a week
Protocol: To establish the PC-9/GR/WR xenograft model, female severe combined immunodeficiency (SCID) mice (18-20 g, 6 weeks of age) were purchased from Charles River Laboratories. All experimental procedures were conducted following a protocol approved by the Institutional Animal Care and Use committee of Asan Institute for Life Sciences (2015-02-062). […] Combination with WZ4002: […] Combination with HM61713: […] Body weights were measured every 3-4 days. At the end of the combination experiment with WZ4002, tumors from each group were homogenized for lysate preparation and analyzed by Western Blotting.

[3] = tested on: T790M-containing cell lines; settings: several preclinical models; cited from earlier work

| Compound | blocking of the catalytic activity of EGFR mutants (mutant forms of EGFR; common EGFR mutants (L858R and exon 19 deletions) and certain uncommon EGFR mutants including T790M, covalent binding) | enzymatic inhibitory activity towards mutant forms of EGFR compared to wild type EGFR (mutant forms of EGFR; in vitro) | inhibition of proliferation of mutated cell lines at lower concentration than for cells expressing wild type EGFR receptor (EGFR mutant cell lines) | anti-tumor activity as a single agent ([1]; HCC827 xenograft in mice, once daily or twice daily) | tolerability in mice ([1]; mouse, in vivo) | anti-tumor activity as a single agent (H1975 (EGFRL858R/T790M)) | response of PC-9/GR/WR tumor xenografts to monotherapy [2] | inhibition of T790M-containing cell lines [3] |
| --- | --- | --- | --- | --- | --- | --- | --- | --- |
| C=CC(=O)Nc1cccc(Oc2nc(Nc3ccc(N4CCN(C)CC4)cc3)nc3ccsc23)c1 [compound 1, N-(3-{2-[4-(4-methyl-piperazin-1-yl)-phenylamino]-thieno[3,2-d]pyrimidin-4-yloxy}-phenyl)-acrylamide] | irreversibly blocks | more potent | approximately 35 fold | Tumor regressions | tolerated | Tumor regressions | Cross-resistance |  |
| COc1cc2ncnc(Nc3ccc(F)c(Cl)c3)c2cc1NC(=O)/C=C/CN1CCCCC1 [dacomitinib] |  |  |  |  |  |  |  | effectively inhibit |
